# Experimental data reported in PubChem BioAssay (NCI).
#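 Tested at 5 concentrations; 48 h exposure; 96-well plates; endpoints linearly interpolated, else capped at highest concentration. TGI: concentration producing complete growth inhibition.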
# Key:
# Assay in all cases: NCI-60 cell line screen, 48 h
# 786-0 renal = test system: 786-0 renal
# A498 renal = test system: A498 renal
# A549 NSCLC = test system: A549 NSCLC
# ACHN renal = test system: ACHN renal
# BT-549 breast = test system: BT-549 breast
# CAKI-1 renal = test system: CAKI-1 renal
# COLO 205 colon = test system: COLO 205 colon
# DU-145 prostate = test system: DU-145 prostate
# EKVX NSCLC = test system: EKVX NSCLC
# HCC-2998 colon = test system: HCC-2998 colon
# HCT-116 colon = test system: HCT-116 colon
# HCT-15 colon = test system: HCT-15 colon
# HOP-62 NSCLC = test system: HOP-62 NSCLC
# HS 578T breast = test system: HS 578T breast
# HT29 colon = test system: HT29 colon
# IGROV1 ovarian = test system: IGROV1 ovarian
# K-562 leukemia = test system: K-562 leukemia
# KM12 colon = test system: KM12 colon
# LOX IMVI melanoma = test system: LOX IMVI melanoma
# M14 melanoma = test system: M14 melanoma
# MALME-3M melanoma = test system: MALME-3M melanoma
# MCF7 breast = test system: MCF7 breast
# MDA-MB-231 breast = test system: MDA-MB-231 breast
# MDA-MB-435 = test system: MDA-MB-435
# MDA-N = test system: MDA-N
# MOLT-4 leukemia = test system: MOLT-4 leukemia
# NCI-H23 lung = test system: NCI-H23 lung
# NCI-H460 lung = test system: NCI-H460 lung
# NCI-H522 lung = test system: NCI-H522 lung
# NCI/ADR-RES ovarian = test system: NCI/ADR-RES ovarian
# OVCAR-3 ovarian = test system: OVCAR-3 ovarian
# OVCAR-4 ovarian = test system: OVCAR-4 ovarian
# OVCAR-5 ovarian = test system: OVCAR-5 ovarian
# PC-3 prostate = test system: PC-3 prostate
# RPMI-8226 leukemia = test system: RPMI-8226 leukemia
# RXF 393 renal = test system: RXF 393 renal
# SF-295 CNS = test system: SF-295 CNS
# SF-539 CNS = test system: SF-539 CNS
# SK-MEL-2 melanoma = test system: SK-MEL-2 melanoma
# SK-MEL-28 melanoma = test system: SK-MEL-28 melanoma
# SK-MEL-5 melanoma = test system: SK-MEL-5 melanoma
# SK-OV-3 ovarian = test system: SK-OV-3 ovarian
# SN12C renal = test system: SN12C renal
# SNB-19 CNS = test system: SNB-19 CNS
# SNB-75 CNS = test system: SNB-75 CNS
# SR leukemia = test system: SR leukemia
# SW-620 colon = test system: SW-620 colon
# T-47D breast = test system: T-47D breast
# TK-10 renal = test system: TK-10 renal
# U251 CNS = test system: U251 CNS
# UACC-257 melanoma = test system: UACC-257 melanoma
# UACC-62 melanoma = test system: UACC-62 melanoma
# UO-31 renal = test system: UO-31 renal
# HOP-92 NSCLC = test system: HOP-92 NSCLC
# NCI-H226 lung = test system: NCI-H226 lung
# OVCAR-8 ovarian = test system: OVCAR-8 ovarian
# SF-268 CNS = test system: SF-268 CNS
structure (smiles),measurement,setting,value
COc1ccc(/C=N/NC(=O)O)cc1,TGI,786-0 renal,> 100 µM
same,TGI,A498 renal,> 100 µM
same,TGI,A549 NSCLC,> 100 µM
same,TGI,ACHN renal,> 100 µM
same,TGI,BT-549 breast,> 100 µM
same,TGI,CAKI-1 renal,> 100 µM
same,TGI,COLO 205 colon,> 100 µM
same,TGI,DU-145 prostate,> 100 µM
same,TGI,EKVX NSCLC,> 100 µM
same,TGI,HCC-2998 colon,> 100 µM
same,TGI,HCT-116 colon,> 100 µM
same,TGI,HCT-15 colon,> 100 µM
same,TGI,HOP-62 NSCLC,> 100 µM
same,TGI,HS 578T breast,> 100 µM
same,TGI,HT29 colon,> 100 µM
same,TGI,IGROV1 ovarian,> 100 µM
same,TGI,K-562 leukemia,> 100 µM
same,TGI,KM12 colon,> 100 µM
same,TGI,LOX IMVI melanoma,> 100 µM
same,TGI,M14 melanoma,> 100 µM
same,TGI,MALME-3M melanoma,> 100 µM
same,TGI,MCF7 breast,> 100 µM
same,TGI,MDA-MB-231 breast,> 100 µM
same,TGI,MDA-MB-435,> 100 µM
same,TGI,MDA-N,> 100 µM
same,TGI,MOLT-4 leukemia,> 100 µM
same,TGI,NCI-H23 lung,> 100 µM
same,TGI,NCI-H460 lung,> 100 µM
same,TGI,NCI-H522 lung,> 100 µM
same,TGI,NCI/ADR-RES ovarian,> 100 µM
same,TGI,OVCAR-3 ovarian,> 100 µM
same,TGI,OVCAR-4 ovarian,> 100 µM
same,TGI,OVCAR-5 ovarian,> 100 µM
same,TGI,PC-3 prostate,> 100 µM
same,TGI,RPMI-8226 leukemia,> 100 µM
same,TGI,RXF 393 renal,> 100 µM
same,TGI,SF-295 CNS,> 100 µM
same,TGI,SF-539 CNS,> 100 µM
same,TGI,SK-MEL-2 melanoma,> 100 µM
same,TGI,SK-MEL-28 melanoma,> 100 µM
same,TGI,SK-MEL-5 melanoma,> 100 µM
same,TGI,SK-OV-3 ovarian,> 100 µM
same,TGI,SN12C renal,> 100 µM
same,TGI,SNB-19 CNS,> 100 µM
same,TGI,SNB-75 CNS,> 100 µM
same,TGI,SR leukemia,> 100 µM
same,TGI,SW-620 colon,> 100 µM
same,TGI,T-47D breast,> 100 µM
same,TGI,TK-10 renal,> 100 µM
same,TGI,U251 CNS,> 100 µM
same,TGI,UACC-257 melanoma,> 100 µM
same,TGI,UACC-62 melanoma,> 100 µM
same,TGI,UO-31 renal,> 100 µM
CNC(Cc1ccccc1)c1cccc(OC)c1O (stereo not drawn),TGI,786-0 renal,> 100 µM
same,TGI,A498 renal,> 100 µM
same,TGI,A549 NSCLC,> 100 µM
same,TGI,ACHN renal,> 100 µM
same,TGI,BT-549 breast,> 100 µM
same,TGI,CAKI-1 renal,> 100 µM
same,TGI,DU-145 prostate,> 100 µM
same,TGI,EKVX NSCLC,> 100 µM
same,TGI,HCT-116 colon,> 100 µM
same,TGI,HCT-15 colon,> 100 µM
same,TGI,HOP-62 NSCLC,> 100 µM
same,TGI,HOP-92 NSCLC,> 100 µM
same,TGI,HS 578T breast,> 100 µM
same,TGI,HT29 colon,> 100 µM
same,TGI,IGROV1 ovarian,> 100 µM
same,TGI,K-562 leukemia,> 100 µM
same,TGI,KM12 colon,> 100 µM
same,TGI,LOX IMVI melanoma,> 100 µM
same,TGI,M14 melanoma,> 100 µM
same,TGI,MALME-3M melanoma,> 100 µM
same,TGI,MDA-MB-231 breast,> 100 µM
same,TGI,MDA-MB-435,> 100 µM
same,TGI,MDA-N,> 100 µM
same,TGI,MOLT-4 leukemia,> 100 µM
same,TGI,NCI-H226 lung,> 100 µM
same,TGI,NCI-H23 lung,> 100 µM
same,TGI,NCI-H460 lung,> 100 µM
same,TGI,NCI-H522 lung,> 100 µM
same,TGI,NCI/ADR-RES ovarian,> 100 µM
same,TGI,OVCAR-3 ovarian,> 100 µM
same,TGI,OVCAR-4 ovarian,> 100 µM
same,TGI,OVCAR-5 ovarian,> 100 µM
same,TGI,OVCAR-8 ovarian,> 100 µM
same,TGI,PC-3 prostate,> 100 µM
same,TGI,RXF 393 renal,> 100 µM
same,TGI,SF-268 CNS,> 100 µM
same,TGI,SF-295 CNS,> 100 µM
same,TGI,SK-MEL-2 melanoma,> 100 µM
same,TGI,SK-MEL-28 melanoma,> 100 µM
same,TGI,SK-MEL-5 melanoma,> 100 µM
same,TGI,SN12C renal,> 100 µM
same,TGI,SNB-19 CNS,> 100 µM
same,TGI,SR leukemia,> 100 µM
same,TGI,SW-620 colon,> 100 µM
same,TGI,T-47D breast,60.4 µM
same,TGI,TK-10 renal,> 100 µM
same,TGI,U251 CNS,> 100 µM
same,TGI,UACC-257 melanoma,53.9 µM
same,TGI,UACC-62 melanoma,> 100 µM
same,TGI,UO-31 renal,> 100 µM
